The results in this text go back to patent US20260078130A1, “NAMPT MODULATORS, PREPARATIONS, AND USES THEREOF” (SIRONAX LTD., priority 2022, published 2026).

Molecules are shown by their SMILES. Where two headings read alike, the source gives them in different places. Bounds are passed on as bounds.

The subject of test [1] is endogenous NAMPT in U2OS cells. Briefly: Cellular NAD+ modulation assay (NAD/NADH-Glo, U2OS cells). The format is cell-based. As to conditions: Homo sapiens; for maximal fold induction: read-out: Cellular Emax. In a few lines: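 NAD/NADH-Glo luminescence quantified NAD+ after acid treatment (60 °C, 15 min) and neutralization of DTAB lysates. Beforehand, U2OS cells seeded 16 h earlier received compound concentration series for 24 h at 37 °C. Values given as half-maximal activation concentration (EC50) and maximal fold change versus DMSO (Emax).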

In test [2] the target is T1, human enzyme NAMPT (full length) (Homo sapiens, UniProt P43490).
T1 construct: human enzyme NAMPT (full length)
Briefly: NMN fluorescence biochemical assay (stimulation of NMN synthesis by NAMPT). As to conditions: for EC50: concentration giving half-maximal activation, read-out: Enzymatic EC50; for Enzymatic Emax: fold change of maximal activation compared to DMSO. The gist of the method: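 Full-length human NAMPT (100 nM) was preincubated 15 min at 37 °C with compound in 50 mM Tris-HCl pH 7.5, 10 mM MgCl2, 2 mM DTT, then reacted 1 h at 37 °C with 50 μM NAM, 100 μM PRPP, 4 mM ATP (stated solution concentrations). NMN was derivatised with acetophenone/KOH then formic acid and read at Ex/Em 382/445 nm; EC50 and Emax (fold over DMSO) reported.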

Setting [3] is: 24 hours incubation with compound.
The mark [4] stands for this setting: NMN synthesis by purified human NAMPT (100 nM).
The mark [5] stands for this setting: 24 hours incubation, cellular NAD+.
The mark [6] stands for this setting: NMN fluorescence assay, purified human NAMPT 100 nM.

T1 sequence (P43490 whole entry): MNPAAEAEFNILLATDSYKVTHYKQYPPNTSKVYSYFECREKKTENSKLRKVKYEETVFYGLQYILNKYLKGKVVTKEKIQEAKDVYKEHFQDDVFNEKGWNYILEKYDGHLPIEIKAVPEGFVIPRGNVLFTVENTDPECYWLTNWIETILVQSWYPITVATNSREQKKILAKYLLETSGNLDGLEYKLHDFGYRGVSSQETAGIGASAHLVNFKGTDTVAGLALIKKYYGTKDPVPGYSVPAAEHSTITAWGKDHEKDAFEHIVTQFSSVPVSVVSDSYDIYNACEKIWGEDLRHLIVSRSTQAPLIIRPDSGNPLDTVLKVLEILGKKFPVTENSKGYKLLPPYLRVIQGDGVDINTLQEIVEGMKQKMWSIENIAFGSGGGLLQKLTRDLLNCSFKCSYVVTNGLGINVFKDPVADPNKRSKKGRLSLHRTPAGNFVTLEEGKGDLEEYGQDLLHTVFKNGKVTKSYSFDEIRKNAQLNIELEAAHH

What is called EC50 is the concentration at which the effect is half-maximal. `O=C1c2ccc(Br)cc2CN1Cc1ccc(O)cc1` [Compound 20, 5-bromo-2-(4-hydroxybenzyl) isoindolin-1-one]: in test [1] (setting [3]), the EC50 lay within 500 to 5000 nM and the maximal fold induction was above 1.5. Also, in test [2] (setting [4]), the EC50 was 500 to 5000 nM. In addition, the “Enzymatic Emax” value in test [2] is “A (A>3)”.

Turning to `COc1ncc(CN2C(=O)c3ccccc3C2Cc2c(Cl)cnn2C)o1` (stereo not drawn) [Compound 603, 3-((4-chloro-1-methyl-1H-pyrazol-5-yl)methyl)-2-((2-methoxyoxazol-5-yl)methyl)isoindolin-1-one], in test [1] (setting [5]), the EC50 lay in the range of 500 to 5000 nM and the maximal fold induction lay in the range of 1.2 to 1.5. Besides, in test [2] (setting [6]), the EC50 is at least 5000 nM. Further, in test [2], the “Enzymatic Emax” value was “C (2≥C)”.

Consider `Cn1ncc(Cl)c1CC1c2ccccc2C(=O)N1C[C@@H]1CC1c1c[nH]nn1` (stereo in doubt) [Compound 548, trans 2-((2-(1H-1,2,3-triazol-4-yl)cyclopropyl)methyl)-3-((4-chloro-1-methyl-1H-pyrazol-5-yl)methyl)isoindolin-1-one], for which, in test [1] (setting [5]), the EC50 is below 500 nM and the maximal fold induction is above 1.5. In addition, the “Enzymatic Emax” value in test [2] was “B (3≥B>2)”.

In the case of `CC1(C)c2ccccc2C(=O)N1Cc1ccc2[nH]c(=O)oc2c1` [Compound 52, 6-((1,1-dimethyl-3-oxoisoindolin-2-yl)methyl) benzo[d]oxazol-2(3H)-one], the EC50 in test [1] (setting [3]) is 500 to 5000 nM; in test [2] (setting [4]), at least 5000 nM. In addition, the maximal fold induction in test [1] (setting [3]) is above 1.5. Moreover, in test [2], the “Enzymatic Emax” value is on record as “B (3≥B>2)”.

`O=c1[nH]c2ccc(Cn3c(=O)c4ccccc4n3Cc3ccccc3C(F)(F)F)cc2o1` [Compound 141, 6-((3-oxo-1-(2-(trifluoromethyl)benzyl)-1,3-dihydro-2H-indazol-2-yl)methyl)benzo[d]oxazol-2(3H)-one]: in test [1] (setting [3]), the EC50 lay within 500 to 5000 nM and the maximal fold induction was above 1.5. Further, the EC50 in test [2] (setting [4]) fell in the range of 500 to 5000 nM. Moreover, the “Enzymatic Emax” value in test [2] was “B (3≥B>2)”.

In the case of `N#Cc1cccc(F)c1C[C@H]1c2ccccc2C(=O)N1Cc1ccc2[nH]c(=O)oc2c1` [Compound 172, (S)-3-fluoro-2-((3-oxo-2-((2-oxo-2,3-dihydrobenzo[d]oxazol-6-yl)methyl)isoindolin-1-yl)methyl)benzonitrile], the EC50 in test [1] (setting [3]) and in test [2] (setting [4]) was below 500 nM throughout. In test [1] (setting [3]), the maximal fold induction is above 1.5. For the same compound, the “Enzymatic Emax” value in test [2] is “B (3≥B>2)”.

In the case of `Cn1ncc(Cl)c1CC1c2ccccc2C(=O)N1C/C(F)=C/c1nn[nH]c1F` (stereo not drawn) [Compound 601, (Z)-3-((4-chloro-1-methyl-1H-pyrazol-5-yl)methyl)-2-(2-fluoro-3-(5-fluoro-1H-1,2,3-triazol-4-yl)allyl)isoindolin-1-one], in test [1] (setting [5]), the EC50 is below 500 nM and the maximal fold induction was in the range of 1.2 to 1.5. Moreover, in test [2] (setting [6]), the EC50 lay within 500 to 5000 nM. Besides, the “Enzymatic Emax” value in test [2] is “A (A>3)”.

Consider `N#Cc1nccc(Cl)c1CC1c2ccccc2C(=O)N1Cc1ccc2[nH]c(=O)oc2c1` (stereo not drawn) [Compound 212, 4-chloro-3-((3-oxo-2-((2-oxo-2,3-dihydrobenzo[d]oxazol-6-yl)methyl)isoindolin-1-yl)methyl)picolinonitrile], for which, in test [1] (setting [3]), the EC50 was below 500 nM and the maximal fold induction is above 1.5. The EC50 in test [2] (setting [4]) is below 500 nM. Moreover, the “Enzymatic Emax” value in test [2] is “A (A>3)”.

On to `COc1nn(C)c(CC2c3ccccc3C(=O)N2Cc2ccc3[nH]nnc3c2)c1Cl` (stereo not drawn) [Compound 316, 2-((1H-benzo[d][1,2,3]triazol-5-yl)methyl)-3-((4-chloro-3-methoxy-1-methyl-1H-pyrazol-5-yl)methyl)isoindolin-1-one], for which, in test [1] (setting [3]), the EC50 is below 500 nM and the maximal fold induction lay in the range of 1.2 to 1.5. In addition, in test [2] (setting [4]), the 50% effective concentration (EC50) is below 500 nM. Further, in test [2], the “Enzymatic Emax” value is reported as “B (3≥B>2)”.

Consider `O=C1c2ccccc2C(Cc2nn(C3COC3)cc2Cl)N1Cc1ccc2[nH]nnc2c1` (stereo not drawn) [Compound 318, 2-((1H-benzo[d][1,2,3]triazol-5-yl)methyl)-3-((4-chloro-1-(oxetan-3-yl)-1H-pyrazol-3-yl)methyl)isoindolin-1-one], for which, in test [1] (setting [3]), the EC50 is below 500 nM and the maximal fold induction was above 1.5. Also, the EC50 in test [2] (setting [4]) is below 500 nM. Moreover, the “Enzymatic Emax” value in test [2] is listed as “A (A>3)”.

As to `Cc1nn(C)c(C#N)c1CC1c2ccccc2C(=O)N1Cc1ccc2[nH]nnc2c1` (stereo not drawn) [Compound 341, 4-((2-((1H-benzo[d][1,2,3]triazol-5-yl)methyl)-3-oxoisoindolin-1-yl)methyl)-1,3-dimethyl-1H-pyrazole-5-carbonitrile], in test [1] (setting [5]), the EC50 was below 500 nM and the maximal fold induction is above 1.5. In addition, the EC50 in test [2] (setting [6]) is below 500 nM. Also, in test [2], the “Enzymatic Emax” value is reported as “A (A>3)”.

For the compound `COc1ccc(CN2C(=O)c3ccccc3C2Cc2c(Cl)cnn2C)cc1` (stereo not drawn) [Compound 518, 3-((4-chloro-1-methyl-1H-pyrazol-5-yl)methyl)-2-(4-methoxybenzyl)isoindolin-1-one], in test [1] (setting [5]), the EC50 was below 500 nM and the maximal fold induction lay within 1.2 to 1.5. Also, in test [2] (setting [6]), the EC50 lay in the range of 500 to 5000 nM. In addition, in test [2], the “Enzymatic Emax” value is on record as “B (3≥B>2)”.

For the compound `O=C1c2ccc(Br)cc2CN1Cc1ccc2[nH]c(=O)oc2c1` [Compound 299, 6-((5-bromo-1-oxoisoindolin-2-yl)methyl)benzo[d]oxazol-2(3H)-one], in test [1] (setting [3]), the EC50 lay within 500 to 5000 nM and the maximal fold induction was 1.2 to 1.5. Moreover, the EC50 in test [2] (setting [4]) fell in the range of 500 to 5000 nM. Moreover, in test [2], the “Enzymatic Emax” value is “C (2≥C)”.

On to `Cn1ncc(Cl)c1CC1c2cc(N3CCOCC3)ccc2C(=O)N1CC1CC2(CNC(=O)O2)C1` (stereo not drawn) [Compound 463, 2-((3-((4-chloro-1-methyl-1H-pyrazol-5-yl)methyl)-5-morpholino-1-oxoisoindolin-2-yl)methyl)-5-oxa-7-azaspiro[3.4]octan-6-one], for which, in test [1] (setting [5]), the EC50 was below 500 nM and the maximal fold induction was above 1.5. For the same compound, the EC50 in test [2] (setting [6]) was in the range of 500 to 5000 nM. The “Enzymatic Emax” value in test [2] is “B (3≥B>2)”.

In the case of `Cn1ncc(Cl)c1CC1c2cc(OC(F)F)ccc2C(=O)N1CC1CC2(CNC(=O)O2)C1` (stereo not drawn) [Compound 541, 2-((3-((4-chloro-1-methyl-1H-pyrazol-5-yl)methyl)-5-(difluoromethoxy)-1-oxoisoindolin-2-yl)methyl)-5-oxa-7-azaspiro[3.4]octan-6-one], in test [1] (setting [5]), the EC50 was below 500 nM and the maximal fold induction was above 1.5. In test [2] (setting [6]), the EC50 lay in the range of 500 to 5000 nM. Moreover, the “Enzymatic Emax” value in test [2] is listed as “B (3≥B>2)”.

With `O=C1c2ccccc2C(Cc2ncccc2Br)N1Cc1ccc2[nH]nnc2c1` (stereo not drawn) [Compound 331, 2-((1H-benzo[d][1,2,3]triazol-5-yl)methyl)-3-((3-bromopyridin-2-yl)methyl)isoindolin-1-one], in test [1] (setting [5]), the EC50 is below 500 nM and the maximal fold induction is above 1.5. For the same compound, in test [2] (setting [6]), the EC50 is below 500 nM. For the same compound, in test [2], the “Enzymatic Emax” value is listed as “A (A>3)”.

In the case of `O=C1NCC2(CC(CN3C(=O)c4ccccc4C3Cc3c(Cl)nc4ccccn34)C2)O1` (stereo not drawn) [Compound 488, 2-((1-((2-chloroimidazo[1,2-a]pyridin-3-yl)methyl)-3-oxoisoindolin-2-yl)methyl)-5-oxa-7-azaspiro[3.4]octan-6-one], in test [1] (setting [5]), the EC50 was below 500 nM and the maximal fold induction was above 1.5. Further, the EC50 in test [2] (setting [6]) lay within 500 to 5000 nM. Also, in test [2], the “Enzymatic Emax” value is reported as “B (3≥B>2)”.

As to `Cn1ncc(Cl)c1CC1c2ccccc2C(=O)N1Cc1ccc2[nH]nnc2c1` (stereo not drawn) [Compound 279, 2-((1H-benzo[d][1,2,3]triazol-5-yl)methyl)-3-((4-chloro-1-methyl-1H-pyrazol-5-yl)methyl) isoindolin-1-one], in test [1] (setting [3]), the EC50 was below 500 nM and the maximal fold induction is above 1.5. Further, the EC50 in test [2] (setting [4]) was below 500 nM. Also, the “Enzymatic Emax” value in test [2] is recorded as “B (3≥B>2)”.

Consider `O=C1c2ccccc2C(Cc2ncccc2Br)N1C/C(F)=C/c1c[nH]nn1` (stereo not drawn) [Compound 314, (Z)-3-((3-bromopyridin-2-yl)methyl)-2-(2-fluoro-3-(1H-1,2,3-triazol-4-yl)allyl)isoindolin-1-one], for which, in test [1] (setting [3]), the EC50 is below 500 nM and the maximal fold induction was above 1.5. Further, the EC50 in test [2] (setting [4]) is below 500 nM. The “Enzymatic Emax” value in test [2] is given as “B (3≥B>2)”.

With `COc1ccc2c(c1)CN(Cc1ccc(O)cc1)C2=O` [Compound 35, 2-(4-hydroxybenzyl)-5-methoxyisoindolin-1-one], the EC50 in test [1] (setting [3]) and in test [2] (setting [4]) was 500 to 5000 nM in each case. In addition, the maximal fold induction in test [1] (setting [3]) lay within 1.2 to 1.5. Besides, in test [2], the “Enzymatic Emax” value was “A (A>3)”.

`N#Cc1ccccc1CC1c2ccccc2C(=O)N1Cc1ccc2[nH]c(=O)oc2c1` (stereo not drawn) [Compound 147, 2-((3-oxo-2-((2-oxo-2,3-dihydrobenzo[d]oxazol-6-yl)methyl)isoindolin-1-yl)methyl) benzonitrile]: in test [1] (setting [3]), the EC50 was below 500 nM and the maximal fold induction was above 1.5. For the same compound, the EC50 in test [2] (setting [4]) is below 500 nM. The “Enzymatic Emax” value in test [2] is “A (A>3)”.

Regarding `Cn1nc(F)c(Cl)c1CC1c2ccccc2C(=O)N1CC1CC2(CNC(=O)O2)C1` (stereo not drawn) [Compound 547, 2-((1-((4-chloro-3-fluoro-1-methyl-1H-pyrazol-5-yl)methyl)-3-oxoisoindolin-2-yl)methyl)-5-oxa-7-azaspiro[3.4]octan-6-one], in test [1] (setting [5]), the EC50 is below 500 nM and the maximal fold induction is above 1.5. Besides, the EC50 in test [2] (setting [6]) is 500 to 5000 nM. Also, the “Enzymatic Emax” value in test [2] is on record as “A (A>3)”.
